Data as given in ChEMBL document CHEMBL3137667, “[Drug-induced liver injury; fourteenth updated edition of the bibliographic database of liver injuries and related drugs]” (Gastroenterol Clin Biol, 2004).

What was measured:
[1] = Highest frequency of moderate liver toxicity observed during clinical trials, expressed as a percentage. [column '% BIOL' in source]; conditions: human
[2] = Highest frequency of acute liver toxicity observed during clinical trials, expressed as a percentage. [column '% AIGUE' in source]; conditions: human
[3] = Presence of at least one case with successful reintroduction. [column 'REINT' in source]; conditions: human
[4] = Times to onset, minimal and maximal, observed in the indexed observations. [column 'DELAI' in source]; conditions: human
[5] = human, serum
[6] = human, serum; remark: listed apart in the source
[7] = human
[8] = human; remark: listed apart in the source
[9] = human; remark: listed apart in the source
[10] = human, serum, 4383 h
[11] = human; remark: listed apart in the source
[12] = human; remark: listed apart in the source
[13] = human; remark: listed apart in the source
[14] = human; remark: listed apart in the source
[15] = human; remark: listed apart in the source
[16] = human; remark: listed apart in the source
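For Hepatotoxicity (association with vascular disease) in this document: count of indexed literature references reporting vascular liver injury in humans, e.g. peliosis hepatitis, hepatic veno-occlusive disease or Budd-Chiari syndrome.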
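For Hepatotoxicity (benign tumour) in this document: value is a count of indexed literature references citing a benign tumour confirmed by histopathology.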
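For Hepatotoxicity (choleostasis) in this document: human cholestatic liver injury, shown by histopathology or by peak ALT or AST elevation over alkaline phosphatase ratio below 2, value counts indexed literature reports.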
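For Hepatotoxicity (chronic liver disease) in this document: chronic liver injury confirmed by histopathology or persistently raised serum aminotransferase activity beyond 6 months, value given as the count of indexed literature references.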
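For Hepatotoxicity (cirrhosis) in this document: value is a count of indexed literature references reporting cirrhosis confirmed by histopathology.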
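For Hepatotoxicity (cytolytic) in this document: human cytolytic liver injury, shown by histopathology or by a ratio above 5 of peak ALT or AST elevation to alkaline phosphatase elevation, value counts indexed references.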
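For Hepatotoxicity (granulomatous hepatitis) in this document: value is a count of indexed literature references reporting granulomatous liver disease confirmed by histopathology.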
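For Hepatotoxicity (malignant tumour) in this document: malignant tumour confirmed by histopathology, value gives the count of indexed literature references reporting it.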
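For Hepatotoxicity (severe hepatitis) in this document: human clinical data: severe hepatitis, meaning potentially life-threatening liver failure or clinically observed cases, the value counts how many indexed literature references report it.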
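For Hepatotoxicity (steatosis) in this document: steatosis confirmed by histopathology, value is the count of indexed references.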

SMILES | Hepatotoxicity (moderate) [1] [%] | Hepatotoxicity (acute) [2] [%] | Hepatotoxicity (successful reintroduction) [3] | Hepatotoxicity (time to onset) [4] | Hepatotoxicity (moderate) [5] | Hepatotoxicity (acute) [6] | Hepatotoxicity (cytolytic) [7] | Hepatotoxicity (choleostasis) [8] | Hepatotoxicity (severe hepatitis) [9] | Hepatotoxicity (chronic liver disease) [10] | Hepatotoxicity (cirrhosis) [11] | Hepatotoxicity (granulomatous hepatitis) [12] | Hepatotoxicity (association with vascular disease) [13] | Hepatotoxicity (steatosis) [14] | Hepatotoxicity (malignant tumour) [15] | Hepatotoxicity (benign tumour) [16] | other results
CCN(CC)CCCN(c1ccccc1)C1Cc2ccccc2C1 [APRINDINE] | 1 | 0.1 | yes | 5 days - 2 months | 1 | 9 | 4 | 7 | 0 | 0 | 0 | 1 | 0 | 0 | 0 | 0 | 
O=C1C(O)=C([C@H]2CC[C@H](c3ccc(Cl)cc3)CC2)C(=O)c2ccccc21 [ATOVAQUONE] | 16 | 5.3 | yes | 10 days - 6 weeks | 9 | 2 | 2 | 0 | 0 | 0 | 0 | 0 | 0 | 0 | 0 | 0 | 
CCc1oc2ccccc2c1C(=O)c1cc(Br)c(O)c(Br)c1 [BENZBROMARONE] | 0 | 0 | yes | 1.5 months - 5 months | 1 | 5 | 5 | 0 | 4 | 0 | 0 | 0 | 0 | 0 | 0 | 0 | 
O=C(CCCN1CCC(O)(c2ccc(Br)cc2)CC1)c1ccc(F)cc1 [BROMPERIDOL] | 0 | 0 | yes | 2 weeks - 6 weeks | 0 | 1 | 0 | 0 | 0 | 0 | 0 | 0 | 0 | 0 | 0 | 0 | 
Cc1ncsc1CCCl [CLOMETHIAZOLE] | 0 | 0 | yes | 3 days - 40 days | 1 | 3 | 3 | 1 | 2 | 0 | 0 | 0 | 0 | 0 | 0 | 0 | 
COc1ccc2c3c1O[C@H]1[C@@H](O)C=C[C@H]4[C@@H](C2)N(C)CC[C@@]341 [CODEINE] |  |  | yes | < 1 hour - 1.5 hours | 2 | 3 |  |  |  | 0 | 0 |  | 0 | 0 | 0 | 0 | Hepatotoxicity (moderate) ([1]; Liver): 0%; Hepatotoxicity (acute) ([2]; Liver): 0%; Hepatotoxicity (cytolytic) ([7]; Liver): 2; Hepatotoxicity (choleostasis) ([8]; Liver): 0; Hepatotoxicity (severe hepatitis) ([9]; Liver): 0; Hepatotoxicity (granulomatous hepatitis) ([12]; Liver): 1
CC(=O)Oc1ccc(C(=C2CCCCC2)c2ccc(OC(C)=O)cc2)cc1 [CYCLOFENIL] | 55.6 | 1.3 | yes | 1 month - 5 months | 8 | 5 | 3 | 2 | 0 | 0 | 0 | 1 | 1 | 0 | 0 | 0 | 
NCCS [CYSTEAMINE] | 0 | 0 | yes | 2 weeks - 2 years | 0 | 1 | 1 | 0 | 0 | 0 | 0 | 0 | 1 | 0 | 0 | 0 | 
CN(C)CC[C@@H](c1ccc(Cl)cc1)c1ccccn1 [DEXCHLORPHENIRAMINE] |  |  | yes | 9 days | 0 | 1 | 1 | 0 |  | 0 | 0 | 0 | 0 | 0 | 0 | 0 | Hepatotoxicity (moderate) ([1]; Liver): 0%; Hepatotoxicity (acute) ([2]; Liver): 0%; Hepatotoxicity (severe hepatitis) ([9]; Liver): 0
CC[C@H](C)[C@H]1NC(=O)[C@@H](NC(=O)[C@@H](CC(C)C)N(C)C(=O)[C@@H]2CCCN2C(=O)C(C)O)[C@@H](C)OC(=O)[C@H](Cc2ccc(OC)cc2)N(C)C(=O)[C@@H]2CCCN2C(=O)[C@H](CC(C)C)NC(=O)[C@@H](C)C(=O)[C@H](C(C)C)OC(=O)C[C@@H]1O (stereo partly drawn) [DIDEMNIN B] | 32 | 5.3 | yes | 1 week | 3 | 2 | 0 | 1 | 0 | 0 | 0 | 0 | 0 | 0 | 0 | 0 | 
CCCCC(CC)COC(=O)CC(C(=O)OCC(CC)CCCC)S(=O)(=O)O (stereo not drawn) [DOCUSATE] | 0 | 0 | yes | 2 days - 1 year | 1 | 0 | 0 | 0 | 0 | 1 | 0 | 0 | 0 | 0 | 0 | 0 | 
C=C(CC)C(=O)c1ccc(OCC(=O)O)c(Cl)c1Cl [ETHACRYNIC ACID] | 0 | 0 | yes | 2 weeks - 4 weeks | 0 | 2 | 2 | 0 | 2 | 0 | 0 | 0 | 0 | 0 | 0 | 0 | 
O=C(O)CCC(=O)c1ccc(-c2ccccc2)cc1 [FENBUFEN] | 25 | 0 | yes | 10 days - 2 weeks | 7 | 5 | 1 | 2 | 0 | 0 | 0 | 0 | 0 | 0 | 0 | 0 | 
